One molecule from US11564913B2, “Compositions and methods for treating cancer” (Children's Hospital Medical Center, priority 2019, dated 2023) can be followed below.

The structures appear in SMILES notation.

Experiment [1] concerns ST8814, MCF7, MDA-MB-231, and T47D cells. Put plainly: Cellular GI50s (summary of cell proliferation). It is filed as cell-based. The text has this:
Applicants tested IODVA1's ability to inhibit the proliferation of cells harboring activated Ras and therefore its ability to recapitulate the compound obtained from the NCI. Applicants chose the NF1-associated malignant peripheral nerve sheath tumors (MPNST) cell line ST8814, which is characterized by active wild-type Ras (Basu et al., 1992; Mahller et al., 2006) and the triple negative breast cancer cell line MDA-MB-231 carrying the oncogenic KRAS^G13D mutation (Hollestelle et al., 2007). In addition, applicants used the non-transformed mammary epithelial cell line MCF10A (RAS^WT immortalized by a spontaneous t(3;9)(3p13;9p22) translocation that deletes the CDKN2A gene, also known as p16) and the non-invasive estrogen receptor (ER) and progesterone receptor (PR) positive RAS^WT breast cancer cell line MCF7 (wild-type p53) and T47D (mutant p53). Cells were grown in growth media containing IODVA1 at concentrations between 0.1 and 10 μM or vehicle control and cell number was counted using the trypan blue exclusion method. […] Appreciable decrease in proliferation of non-transformed MCF10A cells was not observed.
IODVA1 has two pyridine groups attached to a central imidazole group. […] To test this hypothesis, applicants evaluated the potential of IODVA1 to interfere with the ability of 369 recombinant wild-type kinases to hydrolyze ATP.

The test system of experiment [2] is Rac1Δ/Δ+Rac2−/− murine leukemic cells expressing p190-BCR-ABL. In words: Clonogenic ability of Rac-deficient leukemic cells. In kind it is cell-based. The settings on record: 1 μM. The procedure: FIG. 13: IODVA1 decreases Rac activation and signaling. (A) Ba/F3 cells expressing p190-BCR-ABL1 were treated with IODVA1 (3 μM) as indicated and levels of active Rac (Rac-GTP) were assessed by pull-down using GST-PAK-GBD, followed by immunoblotting (upper panel) and densitometric quantification (lower panel). (B) Flow-cytometry analysis of pJNK, pS6, p4EBP, pPAK1, and pAKT of Ba/F3 cells expressing Mieg3 empty vector (light and dark blue) or p190-BCR-ABL1 (light and dark salmon) and treated with vehicle control or IODVA1 (3 μM) for 30 min. (C) Representative histogram data of the cell cycle analysis of Ba/F3 cells expressing p190-BCR-ABL and treated with vehicle control or IODVA1 (1, 3, and 10 μM) for 20 h. (D) Quantification of the average number of colonies of bone marrow wild-type (black) and Rac1^Δ/Δ+Rac2^−/− (red) p190-BCR-ABL1 leukemic cells treated with vehicle control or IODVA1 (IO1, 1 μM). ns—not significant, * p<0.05, ** p<0.01, *** p<0.001. […] (G) Ba/F3 cells expressing p190-BCR-ABL1 were treated with IODVA1 (3 μM) and levels of active Cdc42 (Cdc42-GTP) and Rho (Rho-GTP) were assessed by pull-down at the indicated times using GST-PAK-GBD and GST-Rhotekin respectively, followed by immunoblotting (left panel) and densitometric quantification (right panel). […]
To confirm that IODVA1 targets Rac-dependent pathways, we assessed its effects in a Rac2-null background. […]

In experiment [3] the test system is empty vector (Mieg3)-expressing Ba/F3 cells. Put plainly: Cell survival/viability, trypan blue exclusion. In kind it is cell-based, murine. Particulars: IODVA1.

A word on the GI50: it is the concentration giving 50% growth inhibition. The low end stands for greater sensitivity of the cells, the high end for lower sensitivity of the cells. Consider `OC1(c2ccccn2)N=C(Nc2nc3ccccc3[nH]2)N=C1c1ccccn1` (stereo not drawn) [IODVA1, (Z)-2-((1H-benzo[d]imidazol-2-yl)imino)-4,5-di(pyridin-2-yl)-2,5-dihydro-1H-imidazol-5-ol], for which the GI50 in experiment [1] was in the range of 500 to 1000 nM. Further, the “number of colonies formed” value in experiment [2] is reported as “did not alter”. In experiment [3], the inhibition of survival result is “not”.
